Test results: the supplement of paper PMC11061612

What was measured:
Assay in all cases: combination Emax (second highest fraction inhibited in the dose matrix, 72 h); higher = more inhibition; extreme values may be limits of the assay
ES-2 (Ovarian Carcinoma) = tested on: ES-2 (Ovarian Carcinoma)
How it was run: (§1)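 Bliss excess equals the observed combination effect minus the expected value EA + EB − EA·EB, where EA and EB are the effects of each agent alone. Combination Emax is the second-highest inhibition within the matrix. Inhibition was scaled from CellTiter-Glo 2.0 luminescence, with 0 set by vehicle wells and 1 by blank wells, after 72 hours of two-drug dosing of cells plated in 1536-well plates.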

[1] = tested on: HSC-3 (Oral Cavity Carcinoma)
How it was run: as §1

[2] = tested on: LAMA-84 (Chronic Myelogenous Leukemia)
How it was run: as §1

[3] = tested on: Caov-3 (Ovarian Carcinoma)
How it was run: as §1

HuO-3N1 (Osteosarcoma) = tested on: HuO-3N1 (Osteosarcoma)
How it was run: as §1

[4] = tested on: AN3-CA (Endometrial Carcinoma)
How it was run: as §1

[5] = tested on: PANC-02-03 (Pancreatic Carcinoma)
How it was run: as §1

RT4 (Bladder Carcinoma) = tested on: RT4 (Bladder Carcinoma)
How it was run: as §1

[6] = tested on: LOUCY (T-Lymphoblastic Leukemia)
How it was run: as §1

[7] = tested on: SJRH30 (Rhabdomyosarcoma)
How it was run: as §1

[8] = tested on: NCI-H196 (Small Cell Lung Carcinoma)
How it was run: as §1

786-0 (Kidney Carcinoma) = tested on: 786-0 (Kidney Carcinoma)
How it was run: as §1

[9] = tested on: CML-T1 (Chronic Myelogenous Leukemia)
How it was run: as §1

[10] = tested on: RL95-2 (Endometrial Carcinoma)
How it was run: as §1

[11] = tested on: BALL-1 (B-Lymphoblastic Leukemia)
How it was run: as §1

[12] = tested on: PC-14 (Lung Adenocarcinoma)
How it was run: as §1

[13] = tested on: NKM-1 (Acute Myeloid Leukemia)
How it was run: as §1

[14] = tested on: OV-90 (Ovarian Carcinoma)
How it was run: as §1

[15] = tested on: RERF-LC-KJ (Lung Adenocarcinoma)
How it was run: as §1

[16] = tested on: SW684 (Other Solid Carcinomas)
How it was run: as §1

| Structure (SMILES) | combination Emax (ES-2 (Ovarian Carcinoma)) | combination Emax [1] | combination Emax [2] | combination Emax [3] | combination Emax (HuO-3N1 (Osteosarcoma)) | combination Emax [4] | combination Emax [5] | combination Emax (RT4 (Bladder Carcinoma)) | combination Emax [6] | combination Emax [7] | combination Emax [8] | combination Emax (786-0 (Kidney Carcinoma)) | combination Emax [9] | combination Emax [10] | combination Emax [11] | combination Emax [12] | combination Emax [13] | combination Emax [14] | combination Emax [15] | combination Emax [16] |
| --- | --- | --- | --- | --- | --- | --- | --- | --- | --- | --- | --- | --- | --- | --- | --- | --- | --- | --- | --- | --- |
| CN(CCO)CC[C@H](CSc1ccccc1)Nc1ccc(S(=O)(=O)NC(=O)c2ccc(N3CCC([C@@H](O)c4ccccc4-c4ccc(Cl)cc4)CC3)cc2)cc1S(=O)(=O)C(F)(F)F [AZD4320] + CCN(CCO)CCCOc1ccc2c(Nc3cc(CC(=O)Nc4cccc(F)c4)[nH]n3)ncnc2c1 [AZD2811] (first compound max 1 µM, 7x7, partner max 1 µM) | 0.168 | 0.664 | 0.906 | 0.94 | 0.152 | 0.474 | 0.179 | 1 | 1 | 0.503 | 0.055 | 0.166 | 0.994 | 0.92 | 1 | 0.395 | 1 | 0.743 | 0.309 | 0.158 |
| CN(CCO)CC[C@H](CSc1ccccc1)Nc1ccc(S(=O)(=O)NC(=O)c2ccc(N3CCC([C@@H](O)c4ccccc4-c4ccc(Cl)cc4)CC3)cc2)cc1S(=O)(=O)C(F)(F)F [AZD4320] + CN(C)CCCOc1ccc(-c2ccc3ncc4c(c3c2)n(C2CCOCC2)c(=O)n4C)cn1 [AZD0156] (first compound max 1 µM, 7x7, partner max 1 µM) | 0.15 | 0.145 | 0.667 | 0.541 | 0.164 | 0.27 | 0.138 | 0.266 | 1 | 0.147 | 0.171 | 0.0619 | 0.987 | 0.124 | 1 | 0.17 | 1 | 0.5 | 0.267 | 0.19 |
| CN(CCO)CC[C@H](CSc1ccccc1)Nc1ccc(S(=O)(=O)NC(=O)c2ccc(N3CCC([C@@H](O)c4ccccc4-c4ccc(Cl)cc4)CC3)cc2)cc1S(=O)(=O)C(F)(F)F [AZD4320] + C[C@@H]1COCCN1C2=NC(=NC(=C2)C3(CC3)[S@](=N)(=O)C)C4=C5C=CNC5=NC=C4 [AZD6738] (first compound max 1 µM, 7x7, partner max 10 µM) | 0.94 | 0.691 | 0.989 | 0.958 | 0.479 | 0.637 | 0.615 | 0.791 | 1 | 0.927 | 0.397 | 0.815 | 1 | 0.751 | 1 | 0.93 | 1 | 0.917 | 0.324 | 0.537 |
| CN(CCO)CC[C@H](CSc1ccccc1)Nc1ccc(S(=O)(=O)NC(=O)c2ccc(N3CCC([C@@H](O)c4ccccc4-c4ccc(Cl)cc4)CC3)cc2)cc1S(=O)(=O)C(F)(F)F [AZD4320] + C[C@@H](Nc1cc(F)cc(F)c1)c1cc(C(=O)N(C)C)cc2c(=O)cc(N3CCOCC3)oc12 [AZD8186] (first compound max 1 µM, 7x7, partner max 3 µM) | 0.334 | 0.711 | 0.728 | 0.911 | 0.441 | 0.624 | 0.278 | 0.583 | 1 | 0.457 | 0.517 | 0.415 | 1 | 0.253 | 1 | 0.297 | 1 | 0.795 | 0.431 | 0.702 |
| CN(CCO)CC[C@H](CSc1ccccc1)Nc1ccc(S(=O)(=O)NC(=O)c2ccc(N3CCC([C@@H](O)c4ccccc4-c4ccc(Cl)cc4)CC3)cc2)cc1S(=O)(=O)C(F)(F)F [AZD4320] + Cc1cc2ncnn2cc1Nc1ncc2c(n1)n(C1CCOCC1)c(=O)n2C [AZD7648] (first compound max 1 µM, 7x7, partner max 10 µM) | 0.501 | 0.151 | 0.752 | 0.551 | 0.139 | 0.445 | 0.109 | 0.355 | 1 | 0.147 | 0.128 | 0.138 | 0.99 | 0.0598 | 1 | 0.203 | 1 | 0.6 | 0.288 | 0.184 |
| CN(CCO)CC[C@H](CSc1ccccc1)Nc1ccc(S(=O)(=O)NC(=O)c2ccc(N3CCC([C@@H](O)c4ccccc4-c4ccc(Cl)cc4)CC3)cc2)cc1S(=O)(=O)C(F)(F)F [AZD4320] + Cn1cnc2c(F)c(Nc3ccc(Br)cc3Cl)c(C(=O)NOCCO)cc21 [Selumetinib] (first compound max 1 µM, 7x7, partner max 3 µM) | 0.466 | 0.701 | 0.99 | 0.803 | 0.221 | 0.693 | 0.55 | 0.601 | 1 | 0.487 | 0.275 | 0.307 | 0.996 | 0.667 | 1 | 0.333 | 1 | 0.981 | 0.298 | 0.609 |
